The term CC50 denotes the concentration at which the toxic effect on the cells reaches its halfway point.

From ChEMBL document CHEMBL4513152, “CO-ADD screening of Yantai University (China) compounds” come the findings set out here.

In brackets after ≈: the same amount, converted by molar mass.

The test system of one experiment is Pseudomonas aeruginosa. Put plainly: microbe, parasite or virus in culture. Particulars: ATCC 27853, 18 h, ASSAY_TEST Inhibition of Bacterial Growth, detection method Absorption (OD600), MEDIA CAMHB, plate type 384well, NBS, CORNING #3640.
In a further experiment the test system is Klebsiella pneumoniae. Put plainly: microbe, parasite or virus in culture. Particulars: ATCC 700603, 18 h, ASSAY_TEST Inhibition of Bacterial Growth, detection method Absorption (OD600), MEDIA CAMHB, plate type 384well, NBS, CORNING #3640.
For a further experiment, the system named is Staphylococcus aureus. Put plainly: microbe, parasite or virus in culture. The settings on record: ATCC 43300, 18 h, ASSAY_TEST Inhibition of Bacterial Growth, detection method Absorption (OD600), MEDIA CAMHB, plate type 384well, NBS, CORNING #3640.
Another experiment has as its system Escherichia coli. Kind of experiment: microbe, parasite or virus in culture. Particulars: ATCC 25922, 18 h, ASSAY_TEST Inhibition of Bacterial Growth, detection method Absorption (OD600), MEDIA CAMHB, plate type 384well, NBS, CORNING #3640.
The next experiment has as its system HEK293. Put plainly: cells. Format: functional. The settings on record: Homo sapiens, ATCC CRL1573, HEK293; ASSAY_TEST Inhibition of Cell Viability; detection method Resazurin; Fluorescence (ex560/em590); MEDIA DMEM with 10% FBS; plate type 384well; TC; CORNING #3712; time 18 hr.
Another experiment relates to Acinetobacter baumannii. Put plainly: microbe, parasite or virus in culture. The settings on record: ATCC 19606, 18 h, ASSAY_TEST Inhibition of Bacterial Growth, detection method Absorption (OD600), MEDIA CAMHB, plate type 384well, NBS, CORNING #3640.
Another experiment deals with Candida albicans. Put plainly: microbe, parasite or virus in culture. The settings on record: ATCC 90028, ASSAY_TEST Inhibition of Fungal Growth, detection method Absorption (OD530), plate type 384well, NBS, CORNING #3640.

Description for Acinetobacter baumannii: Antibacterial activity against Acinetobacter baumannii ATCC 19606 (CO-ADD:GN_034); MIC in CAMBH media using NBS plates, by OD600
Description for Candida albicans: Antifungal activity against Candida albicans ATCC 90028 (CO-ADD:FG_001); MIC in YNB media using NBS plates, by OD630
Description for Cryptococcus neoformans: Antifungal activity against Cryptococcus neoformans H99 ATCC 208821 (CO-ADD:FG_002); MIC in YNB media using NBS plates, by Resazurin OD(600-570)
Description for Escherichia coli: Antibacterial activity against Escherichia coli ATCC 25922 (CO-ADD:GN_001); MIC in CAMBH media using NBS plates, by OD(600)
Description for Klebsiella pneumoniae: Antibacterial activity against Klebsiella pneumoniae MDR ATCC 70063 (CO-ADD:GN_003); MIC in CAMBH media using NBS plates, by OD(600)
Description for Pseudomonas aeruginosa: Antibacterial activity against Pseudomonas aeruginosa ATCC 27853 (CO-ADD:GN_042); MIC in CAMBH media using NBS plates, by OD(600)
Description for Staphylococcus aureus: Antibacterial activity against Staphylococcus aureus MRSA ATCC 43300 (CO-ADD:GP_020); MIC in CAMBH media, using NBS plates, by OD(600)

On to `CC(=O)O[C@H]1C[C@@]2(C)C(C[C@@H](O)C3[C@@]4(C)CC[C@@H](OC(=O)CCCCCN)[C@@H](C)C4CC[C@@]32C)/C1=C(\CCC=C(C)C)C(=O)OCc1ccccc1` (some centres undefined), for which the MIC against Pseudomonas aeruginosa was over 32 µg/mL; in the experiment on Klebsiella pneumoniae, over 32 µg/mL; against Staphylococcus aureus it was 16 µg/mL (≈ 22.2 µM); against Escherichia coli it was over 32 µg/mL; in the experiment on Cryptococcus neoformans it was 16 µg/mL (≈ 22.2 µM); in the experiment on Acinetobacter baumannii it was over 32 µg/mL. This molecule also yielded an MIC against Candida albicans of 32 µg/mL (≈ 44.4 µM). In the experiment with HEK293, this molecule returned a half-maximal cytotoxic concentration (CC50) of 8.27 µg/mL (≈ 11.5 µM).
With `CC(=O)O[C@H]1C[C@@]2(C)C(C[C@@H](O)C3[C@@]4(C)CC[C@@H](O)[C@@H](C)C4CC[C@@]32C)/C1=C(\CCC=C(C)C)C(=O)O/C(=N/C1CCCCC1)NC1CCCCC1` (some centres undefined), the MIC against Pseudomonas aeruginosa was over 32 µg/mL; in the experiment on Klebsiella pneumoniae it was over 32 µg/mL; with Staphylococcus aureus, 32 µg/mL (≈ 44.3 µM); against Escherichia coli it was over 32 µg/mL; against Cryptococcus neoformans it was over 32 µg/mL; in the experiment with Acinetobacter baumannii, over 32 µg/mL. Besides, the MIC in the experiment with Candida albicans was over 32 µg/mL. In the experiment with HEK293, this molecule registered a 50% cytotoxic concentration (CC50) of 19.9 µg/mL (≈ 27.5 µM).
With `CC(=O)O[C@H]1C[C@@]2(C)C(C[C@@H](O)C3[C@@]4(C)CC[C@@H](OC(=O)C(N)Cc5ccccc5)[C@@H](C)C4CC[C@@]32C)/C1=C(\CCC=C(C)C)C(=O)OCc1ccccc1` (some centres undefined), the MIC against Pseudomonas aeruginosa, with Klebsiella pneumoniae, against Staphylococcus aureus, with Escherichia coli, with Cryptococcus neoformans and against Acinetobacter baumannii was over 32 µg/mL in each case. This molecule registered an MIC in the experiment on Candida albicans of over 32 µg/mL. Moreover, in the experiment with HEK293, the CC50 was over 32 µg/mL.
In the case of `CC(=O)O[C@H]1C[C@@]2(C)C(C[C@@H](O)C3[C@@]4(C)CC[C@@H](OC(=O)CN)[C@@H](C)C4CC[C@@]32C)/C1=C(\CCC=C(C)C)C(=O)OCc1ccccc1` (some centres undefined), the MIC in the experiment with Pseudomonas aeruginosa is over 32 µg/mL; in the experiment on Klebsiella pneumoniae, over 32 µg/mL; in the experiment with Staphylococcus aureus, over 32 µg/mL; with Escherichia coli, over 32 µg/mL; with Cryptococcus neoformans, 16 µg/mL (≈ 24.1 µM); against Acinetobacter baumannii it was over 32 µg/mL. Further, the MIC in the experiment with Candida albicans was 32 µg/mL (≈ 48.2 µM). This molecule also showed a half-maximal cytotoxic concentration (CC50) in the experiment with HEK293 of 10.8 µg/mL (≈ 16.3 µM).
As for `CCN/C(=N\CCCN(C)C)OC(=O)/C(CCC=C(C)C)=C1/C2C[C@@H](O)C3[C@@]4(C)CC[C@@H](O)[C@@H](C)C4CC[C@]3(C)[C@@]2(C)C[C@@H]1OC(C)=O` (some centres undefined), the MIC against Pseudomonas aeruginosa is over 32 µg/mL; against Klebsiella pneumoniae it was over 32 µg/mL; in the experiment with Staphylococcus aureus, 8 µg/mL (≈ 11.9 µM); in the experiment with Escherichia coli it was over 32 µg/mL; against Cryptococcus neoformans, over 32 µg/mL; in the experiment on Acinetobacter baumannii, over 32 µg/mL. Also, in the experiment with Candida albicans, the MIC was over 32 µg/mL. The molecule further returned a 50% cytotoxic concentration (CC50) in the experiment with HEK293 of 15.4 µg/mL (≈ 22.9 µM).
As for `CC(=O)O[C@H]1C[C@@]2(C)C(C[C@@H](O)C3[C@@]4(C)CC[C@@H](O)[C@@H](C)C4CC[C@@]32C)/C1=C(\CCC=C(C)C)C(=O)On1nnc2ccc(Cl)cc21` (some centres undefined), the MIC in the experiment with Pseudomonas aeruginosa is over 32 µg/mL; with Klebsiella pneumoniae, over 32 µg/mL; against Staphylococcus aureus, at most 0.25 µg/mL; against Escherichia coli, over 32 µg/mL; with Cryptococcus neoformans, over 32 µg/mL; in the experiment on Acinetobacter baumannii it was over 32 µg/mL. This molecule came in with an MIC against Candida albicans of over 32 µg/mL. Besides, the CC50 in the experiment with HEK293 was over 32 µg/mL.
For `CC(=O)O[C@H]1C[C@@]2(C)C(C[C@@H](O)C3[C@@]4(C)CC[C@@H](OC(=O)c5ccccc5C(=O)O)[C@@H](C)C4CC[C@@]32C)/C1=C(\CCC=C(C)C)C(=O)OCc1ccccc1` (some centres undefined), the MIC against Pseudomonas aeruginosa was over 32 µg/mL; against Klebsiella pneumoniae, over 32 µg/mL; with Staphylococcus aureus it was 32 µg/mL (≈ 42.4 µM); in the experiment on Escherichia coli, over 32 µg/mL; against Cryptococcus neoformans, over 32 µg/mL; against Acinetobacter baumannii it was over 32 µg/mL. Also, the MIC against Candida albicans was over 32 µg/mL. For the same molecule, the CC50 with HEK293 is 20.6 µg/mL (≈ 27.3 µM).
Regarding `CC(=O)O[C@H]1C[C@@]2(C)C(C[C@@H](O)C3[C@@]4(C)CC[C@@H](O)[C@@H](C)C4CC[C@@]32C)/C1=C(\CCC=C(C)C)C(=O)O` (some centres undefined), the MIC against Pseudomonas aeruginosa is over 32 µg/mL; in the experiment on Klebsiella pneumoniae, over 32 µg/mL; in the experiment on Staphylococcus aureus, at most 0.25 µg/mL; in the experiment with Escherichia coli it was over 32 µg/mL; in the experiment on Cryptococcus neoformans it was over 32 µg/mL; in the experiment with Acinetobacter baumannii, over 32 µg/mL. For the same molecule, the MIC in the experiment with Candida albicans is over 32 µg/mL. Also, the CC50 in the experiment with HEK293 is over 32 µg/mL.
